From patent US20240082331A1, “ANTI-OBESITY COMPOSITION CONTAINING, AS ACTIVE INGREDIENT, MORINGA OLEIFERA FERMENTATION PRODUCT PREPARED USING NOVEL MONASCUS PURPUREUS SL1” (MBIOMETHERAPEUTICS CO., LTD., priority 2021, published 2024)

Test system: 3T3-L1 preadipocytes
Test: Inhibition of adipocyte differentiation (AdipoRed assay)
Type: cell-based, mice
Conditions: FIG. 3
Procedure: Preadipocytes (3T3-L1) from mice were purchased from ATCC (American Type Culture Collection). DMEM culture medium, Trypsin/EDTA, FBS (fetal bovine serum), and BCS (Bovine calf serum) were purchased from Gibco (Invitrogen corporation). AdipoRed assay reagent for measurement was purchased from Cambrex. Specifically, 3T3-L1 preadipocytes were cultured in DMEM medium containing 10% BCS and antibiotics, and maintained in a CO 2 incubator with 5% carbon dioxide supply. The cells were seeded at a concentration of 1×10^6 cells in a 96-well plate and cultured until they reached 100% confluency. To measure adipocyte differentiation, the cells were treated with MD medium (0.5 mM 3-isobutyl-1-methylxanthine and 1 μM dexamethasone). After 2 days, the medium was replaced with DMEM medium containing 10% FBS, and further cultured for 6 days. Moringa powder and fermented Moringa extract were treated at various concentrations. […] After 10 minutes, fluorescence intensity was measured using a fluorescence intensity reader. Subsequently, the inhibitory effect on adipocyte differentiation in the six compounds isolated in Example 2 was measured. […]

## CC(=O)OC[C@H]1O[C@@H](Oc2c(-c3ccc(O)cc3)oc3cc(O)cc(O)c3c2=O)[C@H](O)[C@@H](O)[C@@H]1O [MOFE-16-5, 6″-O-acetyl astragalin]
  adipocyte differentiation inhibition activity of isolated compounds: excellent adipocyte differentiation inhibition activity
